Test results as given in patent US12377110B2, “Fospropofol methods and compositions” (Epalex Corporation, priority 2019, dated 2025).

Legend:
[1] = Study No. 15-1 (non-GLP): MTD and 7-day once daily oral gavage toxicity of fospropofol disodium; type: in vivo, Sprague-Dawley rats; details: rat, in vivo; oral gavage, Sprague-Dawley rats
Excerpt: (§1) The purpose of Study No. 15-1 (non-GLP) was to determine the maximum tolerated close (MTD) of fospropofol when administered by oral gavage to Sprague-Dawley rats (Phase 1) and to evaluate the potential toxicity of fospropofol in Sprague-Dawley rats when administered once daily by oral gavage for 7 days (Phase 2).

Sprague-Dawley rats [2] = assay: as above; type: in vivo
Excerpt: as §1

[3] = Study No. 15-2 (non-GLP): MTD and 7-day once daily oral gavage toxicity of fospropofol disodium; type: in vivo, Beagle dogs; details: dog, in vivo, Beagle dogs
Beagle dogs = assay: as above; type: in vivo
[4] = Study No. 15-3 (GLP): 14-day once daily oral gavage toxicity of fospropofol disodium; type: in vivo, Sprague-Dawley rats; details: both sexes, rat, in vivo; 14 days once daily oral gavage, Sprague-Dawley rats
Method: (§2) The purpose of Study No. 15-3 (GLP) was to determine the potential toxicity of fospropofol in Sprague-Dawley rats when administered once daily by oral gavage for 14 days. […] The cause of death for the three 250 mg/kg/day group main study females found dead could not be determined, but was considered related to the pharmacodynamic effects of fospropofol, based on the time of death relative to the time of close administration, and the clinical signs recorded before death. Clinical observations during the closing period for these animals included labored breathing, prostrate, splayed hindlimbs, uncoordinated movement, decreased activity, and eyes closed.
(§3) Pivotal GLP 14-day repeat-close toxicity studies with 7-day recovery periods were conducted in Sprague-Dawley rats (Study No. 15-3) and Beagle dogs (Study No. 15-4). […] The cause of death for these animals was considered to be related to the known pharmacodynamic effects of high doses of fospropofol, based on the time of death relative to the time of close administration, and the clinical signs recorded before death which included: labored breathing, prostrate, splayed hindlimbs, uncoordinated movement, decreased activity, and eyes closed. […] The NOAEL was determined to be 100 mg/kg/day (600 mg/m^2/day) in male and female Sprague-Dawley rats.

Sprague-Dawley rats [5] = assay: as above; type: in vivo
Method: as §2, §3

[6] = tested on: adult women and men experiencing moderate to severe migraine headache; assay: Study A17: safety-tolerability (TEAEs); details: N = 18, 800 mg oral
Method: The study is planned to complete approximately 85 subjects. • Enrolled subjects will be asked to come to the study site for treatment when they experience a qualifying migraine headache. Dosing must occur within 4 hours after onset of the migraine symptoms. If treatment at the study site is not feasible or practicable within 4 hours after onset of migraine symptoms, subjects should use their usual medication for that headache and attempt to visit the clinic for treatment as soon as possible (within 4 hours) after onset of their next migraine headache. Dosing must occur within 60 days after enrollment (see Post-enrollment Period below). • At clinic check-in for treatment, study personnel will verify eligibility for closing regarding the criteria for a qualifying headache and adherence to post-enrollment study restrictions (see Eligibility for Dosing below). • Treatment will consist of a single oral dose of fospropofol disodium. […] Because the prevalence of migraine headaches is higher in women than in men, efforts will be made to enroll at least 50% women. • Subjects must meet the general inclusion and exclusion criteria listed below (Inclusion Criteria and Exclusion Criteria) at screening to be enrolled in the study. To be eligible for fospropofol disodium treatment after onset of a migraine headache, enrolled subjects must meet criteria specific to the presenting headache at clinic check-in (see Qualifying Headache below) and adhere to study restrictions specific to the period between enrollment and clinic check-in (see Post-enrollment Restrictions below). • Inclusion Criteria Subjects must meet all of the following criteria at screening to be enrolled in the study: • 1. Written informed consent approved by the Institutional Review Board (IRB) given before any study-related procedures are performed • 2. […] Complete abstinence alone can be used as a method of contraception. • 6. […] Able to comprehend the nature of the study, capable of giving written informed consent, and able to communicate effectively with clinic staff (as assessed by the investigator) • 8. Available to volunteer for the entire study duration and willing to adhere to all protocol requirements, including the post-enrollment restrictions (see Post-enrollment Restrictions below) • 9. Agrees not to post any information related to the study on any website or social media site (e.g., Facebook, Twitter, LinkedIn, Google+, etc.) until the entire trial has been completed • 10. Willing to forgo rescue medicine for at least 2 hours after initiation of treatment with study drug (see In-Clinic Rescue Medicine) • Exclusion Criteria Subjects to whom any of the following criteria apply at screening will be excluded: • 1. History of hemiplegic migraine (at any time in the past). • 2. History of headaches of any type occurring on ≥15 days/month during any of the 3 months prior to screening. • 3.

CC(C)c1cccc(C(C)C)c1OCOP(=O)([O-])O.[Na+] [fospropofol disodium]
MTD at 7 days [1]: 250 mg/kg/day | Mortality (Sprague-Dawley rats [2]; 150 mg/kg/day, Day 7, approximately 30 minutes postdose): one 150 mg/kg/day TK female was found dead | MTD (Sprague-Dawley rats [2]; oral gavage, Sprague-Dawley rats): 1500 mg/m^2/day | Tolerability (Sprague-Dawley rats [2]; oral gavage, single fospropofol doses up to 300 mg/kg or 150 and 250 mg/kg/day once daily for 7 days): well tolerated at all closes | MTD at 7 days [3]: 160 mg/kg/day | MTD (Beagle dogs; Beagle dogs): 3200 mg/m^2/day | Tolerability (Beagle dogs; single fospropofol doses up to 120 mg/kg or 120 and 160 mg/kg/day once daily for 7 days): tolerated at all closes with no mortality or adverse findings | NOAEL at 14 days [4]: 100 mg/kg/day | Mortality (Sprague-Dawley rats [5]; 0, 50, 100, and 250 mg/kg/day for 14 consecutive days): treatment-related mortalities at 250 mg/kg/day | Body weight gain (Sprague-Dawley rats [5]; 250 mg/kg/day): reduced body weight gain | Prothrombin time (Sprague-Dawley rats [5]; 250 mg/kg/day): transient increase in prothrombin time | Gross observations and microscopic findings (Sprague-Dawley rats [5]; 250 mg/kg/day main study females found dead): no treatment-related gross observations or microscopic findings | NOAEL (Sprague-Dawley rats [5]; 14 days once daily oral gavage, Sprague-Dawley rats): 600 mg/m^2/day | Mortalities (Sprague-Dawley rats [5]; high dose level (250 mg/kg/day), 14 days): 4 | Histopathology, all tissues including GIT-related (Sprague-Dawley rats [5]; up to 250 mg/kg/day): no treatment-related histopathology findings | Number of TEAEs, E, by severity ([6]; Mild): 5 | Number of subjects with at least 1 TEAE, by severity ([6]; Mild): 3 | Number of TEAEs, E, by severity ([6]; Moderate): 3 | Number of subjects with at least 1 TEAE, by severity ([6]; Moderate): 3^1 | Dry mouth: number of TEAEs, E [6]: 1 | Dry mouth: subjects with TEAE, % [6]: 7.7% | Dysgeusia: number of TEAEs, E [6]: 1 | Dysgeusia: subjects with TEAE, % [6]: 5.6% | Gastrointestinal disorders: number of TEAEs, E [6]: 2 | Gastrointestinal disorders: subjects with TEAE, % [6]: 11.1% | Genital paraesthesia: number of TEAEs, E [6]: 2 | Genital paraesthesia: subjects with TEAE, % [6]: 5.6% | Nausea: number of TEAEs, E [6]: 1 | Nausea: subjects with TEAE, % [6]: 7.7% | Nervous system disorders: number of TEAEs, E [6]: 4 | Nervous system disorders: subjects with TEAE, % [6]: 16.7% | Number of TEAEs, E [6]: 9 | Paraesthesia: number of TEAEs, E [6]: 2 | Paraesthesia: subjects with TEAE, % [6]: 11.1% | Pruritus: number of TEAEs, E [6]: 1 | Pruritus: subjects with TEAE, % [6]: 5.6% | Reproductive system and breast disorders: number of TEAEs, E [6]: 2 | Reproductive system and breast disorders: subjects with TEAE, % [6]: 5.6% | Skin and subcutaneous tissue disorders: number of TEAEs, E [6]: 1 | Skin and subcutaneous tissue disorders: subjects with TEAE, % [6]: 5.6% | Somnolence: number of TEAEs, E [6]: 1 | Somnolence: subjects with TEAE, % [6]: 5.6% | Subjects with at least 1 TEAE, % [6]: 33.3% | Relation of TEAEs to study drug: Dry mouth ([6]; Possibly related): 0 | Relation of TEAEs to study drug: Dysgeusia ([6]; Possibly related): 0 | Relation of TEAEs to study drug: Gastrointestinal disorders ([6]; Possibly related): 1 | Relation of TEAEs to study drug: Genital paraesthesia ([6]; Possibly related): 0 | Relation of TEAEs to study drug: Nausea ([6]; Possibly related): 1 | Relation of TEAEs to study drug: Nervous system disorders ([6]; Possibly related): 0 | Relation of TEAEs to study drug: Number of TEAEs, E ([6]; Possibly related): 2 | Relation of TEAEs to study drug: Paraesthesia ([6]; Possibly related): 0 | Relation of TEAEs to study drug: Pruritus ([6]; Possibly related): 1 | Relation of TEAEs to study drug: Reproductive system and breast disorders ([6]; Possibly related): 0 | Relation of TEAEs to study drug: Skin and subcutaneous tissue disorders ([6]; Possibly related): 1 | Relation of TEAEs to study drug: Somnolence ([6]; Possibly related): 0 | Relation of TEAEs to study drug: Dry mouth ([6]; Probably related): 1 | Relation of TEAEs to study drug: Dysgeusia ([6]; Probably related): 1 | Relation of TEAEs to study drug: Gastrointestinal disorders ([6]; Probably related): 1 | Relation of TEAEs to study drug: Genital paraesthesia ([6]; Probably related): 2 | Relation of TEAEs to study drug: Nervous system disorders ([6]; Probably related): 4 | Relation of TEAEs to study drug: Number of TEAEs, E ([6]; Probably related): 7 | Relation of TEAEs to study drug: Paraesthesia ([6]; Probably related): 2 | Relation of TEAEs to study drug: Pruritus ([6]; Probably related): 0 | Relation of TEAEs to study drug: Reproductive system and breast disorders ([6]; Probably related): 2 | Relation of TEAEs to study drug: Skin and subcutaneous tissue disorders ([6]; Probably related): 0 | Relation of TEAEs to study drug: Somnolence ([6]; Probably related): 1 | Number of TEAEs, E, by severity ([6]; Severe): 1 | Number of subjects with at least 1 TEAE, by severity ([6]; Severe): 1^1
